Measured values taken from US5086070A, “4-benzyl-1H-indoles and anti-arrthymic use thereof” (Roussel Uclaf, priority 1989, dated 1992).
Read-outs that look alike come from different tables or passages of the source.

What was measured:
[1] = system: ventricular extrasystoles; assay: Anti-arhythmic action in the rat (aconitine-induced ventricular extrasystoles); assay type: in vivo; conditions: read-out: Percentage of protection (percentage increase in the aconitine dose necessary to initiate the ventricular extrasystoles); for change in vivo at 1 mg/kg / change in vivo at 5 mg/kg: iv; for change in vivo at 25 mg/kg: po, 1 h
Experimental: Male rats weighing 300-350 g, anaesthetized by intraperitoneal route with 1.20 g/kg of urethane, were tracheotomized and subjectd to artificial respiration (40-50 insufflations of 3 ml/minute). Needles were implanted under the skin to record the electrocardiogram of the rats on reception of the DII signal. The test products were administered intravenously or orally. After five minutes in the case of intravenous administration and one hour in the case of oral administration, the jugular vein of the rats was perfused with 10 micrograms/minutes under 0.21 ml of an aconitine solution and the time taken for the first ventricular extrasystoles to appear was noted. The amount of aconitine perfused was calculated, then expressed as a function of the body weight of the animal.
The percentage increase in the aconitine dose necessary to initiate the ventricular extrasystoles after treatment was calculated relative to the control animals.

blood-platelets = assay: Blood-platelet aggregation, in vitro, on plasma rich in blood-platelets (PRP); assay type: cell-based; conditions: Oryctolagus cuniculus, 2 min, rabbit PRP, 2 minutes incubation
From the text: 3) Test for the Activity of Anti-Aggregation of Blood-Platelets. Blood-Platelet Aggregation, in Vitro, on Plasma Rich in Blood-Platelets (PRP)
Measurement of blood-platelet aggregation was made according to the turbidimetric method of Born et al 1963, J. Physiol., Vol. 168, p. 178. Rabbit's blood was removed on Na citrate at 3.2% of cardiac puncture and the plasma rich in blood-platelets was obtained by centrifuging and adjustment of the number of blood-platelets to […]. The aggregation was induced by collagen (40 micrograms per ml of PRP) or PAF acether (0.05 micromoles per liter of PRP). The test compounds were incubated at different concentrations in the PRP 2 minutes before the aggregating agent. The results are expressed in IC50 (concentration inhibiting the aggregation by 50% relative to the control curves).

caudal artery = assay: Test for anti-calcic activity in vitro, isolated caudal artery of the rat (contraction induced by calcium chloride); assay type: cell-based; conditions: caudal artery rings of Wistar rats, depolarizing solution KCl 100 mM, CaCl2 2.5 mM, phentolamine 10^-5 M, 37° C., read-out: IC50 (concentration which inhibited by 50% the contraction induced by calcium chloride)
Experimental: Isolated caudal artery of the rat.
When the contractile responses became reproducible, the test product was added in increasing concentrations 15 minutes before each contraction.

mouse = assay: Acute toxicity, oral, mouse; assay type: in vivo
Experimental: The lethal doses LD0 of the various compounds tested were evaluated after oral administration to a mouse. […]

[2] = PAF acether 0.05 micromoles per liter of PRP, read-out: IC50, induction by PAF ACETHER (concentration inhibiting the aggregation by 50%)
[3] = collagen 40 micrograms per ml of PRP, read-out: IC50, induction by COLLAGEN (concentration inhibiting the aggregation by 50%)

| SMILES | change in vivo at 1 mg/kg [1] [%] | IC50 (blood-platelets; [2]) [µM] | IC50 (blood-platelets; [3]) [µM] | IC50 (caudal artery) [µM] | change in vivo at 5 mg/kg [1] [%] | LD0 (maximum dose which did not cause any deaths over 8 days) (mouse) [mg/kg] | change in vivo at 25 mg/kg [1] [%] |
| --- | --- | --- | --- | --- | --- | --- | --- |
| Cn1ccc2c(C(=O)c3ccccc3OCCCNC(C)(C)C)cccc21 [Example 12, [2-[3-[(1,1-dimethylethyl)-amino]-propoxy]-phenyl]-(1-methyl-1H-indol-4-yl)methanone] | 99 | 40 | 40 | 4.8 | – | – | – |
| CC(C)(C)NCCCOc1ccccc1C(O)c1cccc2[nH]ccc12 (stereo not drawn) [Example 7, α-[2-[3-[(1,1-dimethylethyl)-amino]-propoxy]-phenyl]-1H-indol-4-methanol benzoate] | – | – | – | – | > 201 | 100 | – |
| CC(c1ccccc1OCC(O)CNC(C)(C)C)c1cccc2[nH]ccc12 (racemic) [Example 23, (±) 3-[(1,1-dimethylethyl)-amino]-1-[2-[1-(1H-indol-4-yl)-ethyl]-phenoxy]-2-propanol] | – | 25 | 8 | 4.7 | 88 | – | – |
| O=C(c1ccccc1OCC(O)CNC1CCCCC1)c1cccc2[nH]ccc12 (racemic) [Example 21, (±) [2-[(3-cyclohexylamino)-2-hydroxylpropoxy]-phenyl]-(1H-indol-4-yl) methanone] | – | – | – | – | 124 | – | – |
| CC(C)(C)NCC(O)COc1ccccc1C(=O)c1cccc2c1CC(=O)N2 (stereo not drawn) [Example 15, 1,3-dihydro-4-[2-[3-[(1,1-dimethylethyl)-amino]-2-hydroxy-propoxy]-benzoyl]-2H-indol-2-one] | – | – | – | – | – | > 200 | – |
| C=C(c1ccccc1OCCCNC(C)(C)C)c1cccc2[nH]ccc12 [Example 24] | – | 14 | 8 | 3.1 | – | – | – |
| C=C(c1ccccc1OCC(O)CNC(C)(C)C)c1cccc2[nH]ccc12 (racemic) [Example 22, (±) 3-[(1,1-dimethylethyl)-amino]-[2-[1-(1H-indol-4-yl)-ethenyl]-phenoxy]-2-propanol] | – | 14 | 9 | 3.8 | 84 | 200 | 33 |
| CC(C)(C)NCC(O)COc1ccc(C(=O)c2cccc3[nH]ccc23)cc1 (stereo not drawn) [Example 2, [4-[3-[(1,1-dimethyl ethyl)-amino]-2-hydroxypropoxy]-phenyl]-(1H-indol-4-yl)-methanone] | – | – | – | 1.9 | 93 | – | 82 |
| CC(C)(C)NCC(O)COc1ccccc1C(O)c1cccc2[nH]ccc12 (single isomer, unassigned; isomer b) [Example 9, α-[2-[3-[(1,1-dimethylethyl)-amino]-2-hydroxy-propoxy]-phenyl]-1H-indole-4-methanol benzoate (Isomer B)] | – | – | – | – | > 165 | > 200 | 91 |
| Cn1ccc2c(C(O)c3ccccc3OCCCNC(C)(C)C)cccc21 (racemic) [Example 13, (±) α-[2-[3-[(1,1-dimethylethyl)-amino]-propoxy]-phenyl-1-methyl-1H-indol-4-methanol] | – | 70 | 60 | – | 140 | – | – |
| CON=C(c1ccccc1OCC(O)CNC(C)(C)C)c1cccc2[nH]ccc12 (racemic) [Example 25, (±) O-methyloxime of [2-[3-[(2,2-dimethylethyl)-amino]-2-hydroxypropoxy]-phenyl]-(1H-indol-4-yl) methanone] | – | – | – | – | 186 | – | – |
| Cn1ccc2c(Cc3ccccc3OCC(O)CNC(C)(C)C)cccc21 (racemic) [Example 11, (±) 1-[(1,1-dimethylethyl)-amino]-3-[2-[(1-methyl-1H-indol-4-yl)-methyl]-phenoxy]-2-propanol] | – | 24 | 10 | 3 | 257 | – | 81 |
| CC(C)(C)NCCOc1ccccc1C(=O)c1cccc2[nH]ccc12 [Example 16, [2-[2-[(1,1-dimethylethyl)-amino]-ethoxy]-phenyl]-(1H-indol-4-yl)-methanone] | – | 100 | 57 | 1.1 | – | – | – |
| Cn1ccc2c(C(=O)c3ccccc3OCC(O)CNC(C)(C)C)cccc21 (racemic) [Example 10, (±)[2-[3-[(1,1-dimethylethyl)-amino]-2-hydroxy-propoxy]-phenyl]-(1-methyl-1H-indol-4-yl) methanone] | 133 | 70 | 21 | – | – | – | 124 |
| CC(C)(C)NCC(O)COc1ccccc1C(=O)c1cccc2[nH]ccc12 (stereo not drawn) [Example 4, [2-[3-[(1,1-dimethyl ethyl)-amino]-2-hydroxypropoxy]-phenyl]-(1H-indol-4-yl)-methanone] | – | 55 | 9.5 | 6.2 | > 217 | – | 73 |
| CC(C)(C)NCCCOc1ccccc1Cc1cccc2[nH]ccc12 [Example 6, N-(1,1-dimethylethyl)-3-[2-[(1H-indol-4-yl)-methyl]-phenoxy]-propanamine benzoate] | – | 37 | 14 | 0.4 | – | – | – |
| CC(C)N(CC(O)COc1ccccc1C(=O)c1cccc2[nH]ccc12)C(C)C (racemic) [Example 18, (±) [2-[3-[[bis-1-methylethyl)-amino]-2-hydroxy-propoxy]-phenyl]-(1H-indol-4-yl) methanone] | – | – | – | 7.2 | 135 | – | – |
| CN1CCN(CC(O)COc2ccccc2C(=O)c2cccc3[nH]ccc23)CC1 (racemic) [Example 19, (±) [2-[2-hydroxy-3-(4-methyl-1-piperazinyl)-propoxy]-phenyl]-(1H-indol-4-yl) methanone] | – | – | – | – | 142 | – | – |
| CC(C)(C)NCC(O)COc1ccccc1Cc1cccc2[nH]ccc12 (stereo not drawn) [Example 5, 1-[(1,1-dimethyl-ethyl)-amino]-3-[2-[(1H-indol-4-yl)-methyl]-phenoxy]-2-propanol] | – | 42 | 18 | 2 | – | > 200 | – |
| CC(C)(C)NCCCOc1ccc(C(=O)c2cccc3[nH]ccc23)cc1 [Example 1, [4-[3-[(1,1-dimethyl-ethyl)-amino]-propoxy]-phenyl]-(1H-indol-4-yl)-methanone] | – | – | – | 0.46 | – | – | – |
| CC(C)(C)NCC(O)COc1ccccc1C(O)c1cccc2[nH]ccc12 (single isomer, unassigned) [Example 8, α-[2-[3-[(1,1-dimethylethyl)-amino]-2-hydroxy-propoxy]-phenyl]-1H-indole-4-methanol benzoate] | – | – | – | – | – | > 200 | – |
| CC(C)(C)NCCCOc1ccccc1C(=O)c1cccc2[nH]ccc12.O=C(O)c1ccccc1 [Example 3, [2-[3-[(1,1-dimethyl ethyl)-amino]-propoxy]-phenyl]-(1H-indol-4-yl)-methanone benzoate] | – | 47 | 31 | 1.9 | 202 | 100 | 52 |
